Measured values taken from US8969565B2, “Imidazo[1,2-b]pyridazine-based compounds, compositions comprising them, and methods of their use” (Lexicon Pharmaceuticals, Inc., priority 2012, dated 2015).

Molecular target: T1, AAK1 (Homo sapiens, UniProt Q2M2I8)
T1 construct: HA; expressed in transfected cells; host or cells: HEK293F
Experiment: HEK281 cell-based assay (phospho-mu2 Western blot in transfected HEK293F cells)
Settings: 3 hours incubation, read-out: CBA IC50
Protocol: HEK293F cells were cultured in media containing DMEM (Gibco, cat. #11965), 10% FBS (SAFC Biosciences, cat. #12103C), 1×GPS (glutamine, penicillin and streptomycin). On day one, cells were plated on a 10 cm dish so that they are ˜80% confluent at time of transfection. Roughly 12 million cells were in a 10 cm dish at time of transfection. On day two, each dish was transfected with 48 ug DNA and 144 ul Lipofectamine 2000 (Invitrogen, cat.#11668-019). The DNA was comprised of a mixture (per 10 cm dish) containing 3 ug AAK1/HA/pIRES (full length human, NCBI accession no. NP_055726.2), 45 μg Flag/AP2MI/pcDNA (full length human), and 1.5 ml OPTI-MEM. The Lipofectamine 2000 is made up of a mixture (per 10 cm dish) containing 144 μl Lipofectamine 2000 and 1.5 ml OPTI-MEM. Each mixture was transferred to individual 15 ml tubes and incubated at RT for 5 minutes, and then the two mixes were combined and incubated at RT for 20 minutes. Growth media was then aspirated from each 10 cm plate and replaced with 10 ml of DMEM+10% FBS (no GPS). Finally, 3 ml DNA/Lipofectamine mix was added to each 10 cm dish and mix gently followed by incubate of plate overnight at 37° C. and 5% CO2.
On day three, compounds were diluted in 100% DMSO at 1000× final concentration, followed by 3-fold serial dilutions for a total of 5 concentrations tested. Four compounds were tested per 10 cm dish. One ul of each compound dilution was then pipetted into a deep-well, 96-well plate, followed by addition of 500 μl DMEM+0.5% FBS into each well for a 2× final concentration of each compound. Cells were resuspended in a 10 cm dish by simple pipetting (HEK293 cells come off the plate that easy at this point) and then transferred to a 50 ml conical tube and pelleted by centrifugation at 1000 rpm for 5 min. Cell pellets were then resuspended in 2.75 ml DMEM+0.5% FBS per 10 cm dish and 100 μl of cell suspension transferred into each well of 96-well TC plate. Finally, 100 μl of 2× compound diluted in DMEM+0.5% FBS was then added into wells containing cell suspension for a 1× final concentration. Plates were then incubated at 37° C. and 5% CO2 for 3 hours followed by transferring of cell suspensions from each well into 12-tube PCR strips. The PCR strips were spun in a tip rack at 1000 rpm for 5 minutes to pellet cells and media was then removed by pipetting without disturbing the cell pellet.
To prepare for Western Blot analysis, cell pellets were resuspend in 40 ul 1×LDS-PAGE sample buffer (Invitrogen, cat.#NP0008)+2× Halt phophatase and protease inhibitor cocktail (Thermo Scientific, cat.#1861284), followed by sonicating each with microtip sonicator set at 5 for 8-10 seconds. Five ul of 10× NuPage Sample Reducing Agent (with 50 mM DTT) was to each sample followed by heat denaturing at 70 C for 10 min on PCR machine. A total of 10 μl per sample was loaded into each lane of a 4-20% Tris-Glycine Criterion 26-well gel (Biorad, cat.#345-0034) for the phospho-mu2 blot and 10 μl per lane in a 4-12% Bis-Tris (+MES buffer) NuPAGE 26-well gel (Invitrogen, cat.#WG1403BX10) for the mu2 blot. For controls, 2 ng of phospho-mu2 or 20 ng mu2/Flag proteins were loaded in the last well of each gel. After SDS-PAGE, samples on each gel were transferred to PVDF membrane using an iBlot and membranes were blocked for one hour in TBST+5% milk, followed by wash 3× for 5-10 min with TBST. Criterion gels were probed with rabbit anti-phospho-mu2 (1:5000; a rabbit polyclonal antibody produced by New England Peptide and affinity purified at Lexicon) in TBST+5% BSA, whereas, NuPAGE gels were probed with mouse anti-Flag (1:500; Sigma, cat.#F1804) in TBST+5% milk, and these primary antibodies were incubated overnight at 4° C. on a rocker.

T1 sequence (Q2M2I8 1-863 isoform Q2M2I8-2): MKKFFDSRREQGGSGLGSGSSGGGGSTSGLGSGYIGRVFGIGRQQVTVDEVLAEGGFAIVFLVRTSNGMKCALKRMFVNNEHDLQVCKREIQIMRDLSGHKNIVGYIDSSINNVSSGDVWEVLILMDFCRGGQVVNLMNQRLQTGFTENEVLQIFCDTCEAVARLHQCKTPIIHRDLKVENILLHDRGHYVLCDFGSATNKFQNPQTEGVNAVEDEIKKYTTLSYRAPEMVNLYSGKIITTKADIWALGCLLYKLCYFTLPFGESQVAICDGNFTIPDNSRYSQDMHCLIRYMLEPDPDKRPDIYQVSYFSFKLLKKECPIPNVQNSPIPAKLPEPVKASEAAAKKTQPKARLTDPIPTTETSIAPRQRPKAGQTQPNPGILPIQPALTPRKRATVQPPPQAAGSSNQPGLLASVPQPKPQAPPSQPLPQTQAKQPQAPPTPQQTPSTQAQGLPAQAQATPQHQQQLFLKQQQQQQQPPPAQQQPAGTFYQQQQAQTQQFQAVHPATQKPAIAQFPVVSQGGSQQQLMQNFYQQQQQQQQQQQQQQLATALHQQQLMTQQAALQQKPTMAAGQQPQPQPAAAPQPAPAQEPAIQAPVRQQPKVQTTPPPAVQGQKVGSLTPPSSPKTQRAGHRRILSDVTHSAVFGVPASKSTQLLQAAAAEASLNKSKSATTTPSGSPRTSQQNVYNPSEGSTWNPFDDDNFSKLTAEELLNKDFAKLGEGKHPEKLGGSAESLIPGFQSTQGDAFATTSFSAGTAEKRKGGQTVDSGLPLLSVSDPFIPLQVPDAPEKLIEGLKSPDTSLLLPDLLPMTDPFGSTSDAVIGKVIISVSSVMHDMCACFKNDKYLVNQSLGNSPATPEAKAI

| SMILES | IC50 [nM] |
| --- | --- |
| CC(C)(C)N1CCN(CCNc2ccc3ncc(-c4ccc(CN)cc4)n3n2)C1=O [1-(2-((3-(4-(aminomethyl)phenyl)imidazo[1,2-b]pyridazin-6-yl)amino)ethyl)-3-(tert-butyl)imidazolidin-2-one] | ≤ 100 |
| COc1cnccc1-c1cnc2ccc(N3CCN(C(=O)CC(C)(C)C)CC3)nn12 [1-(4-(3-(3-methoxypyridin-4-yl)imidazo[1,2-b]pyridazin-6-yl)piperazin-1-yl)-3,3-dimethylbutan-1-one] | ≤ 100 |
| CC(=O)c1ccc(-c2cnc3ccc(NCCN(C)c4ccccc4)nn23)s1 [1-(5-(6-((2-(methyl(phenyl)amino)ethyl)amino)imidazo[1,2-b]pyridazin-3-yl)thiophen-2-yl)ethanone] | ≤ 100 |
| CNCCCNc1ccc2ncc(-c3ccc(C(C)=O)s3)n2n1 [1-(5-(6-((3-(methylamino)propyl)amino)imidazo[1,2-b]pyridazin-3-yl)thiophen-2-yl)ethanone] | ≤ 1000 |
| COCCCNc1ccc2ncc(-c3ccc(C(C)=O)s3)n2n1 [1-(5-(6-((3-methoxypropyl)amino)imidazo[1,2-b]pyridazin-3-yl)thiophen-2-yl)ethanone] | ≤ 1000 |
| CCCCN(C)c1ccc2ncc(-c3ccc(C(C)=O)s3)n2n1 [1-(5-(6-(butyl(methyl)amino)imidazo[1,2-b]pyridazin-3-yl)thiophen-2-yl)ethanone] | ≤ 100 |
| CC(=O)c1ccc(-c2cnc3ccc(NCC(C)C)nn23)s1 [1-(5-(6-(isobutylamino)imidazo[1,2-b]pyridazin-3-yl)thiophen-2-yl)ethanone] | ≤ 1000 |
| CCCNc1ccc2ncc(-c3ccc(C(C)=O)s3)n2n1 [1-(5-(6-(propylamino)imidazo[1,2-b]pyridazin-3-yl)thiophen-2-yl)ethanone] | ≤ 1000 |
| COc1cnccc1-c1cnc2ccc(NCCN3CCN(C(C)(C)C)C3=O)nn12 [1-(tert-butyl)-3-(2-((3-(3-methoxypyridin-4-yl)imidazo[1,2-b]pyridazin-6-yl)amino)ethyl)imidazolidin-2-one] | ≤ 100 |
| COc1cnccc1-c1cnc2ccc(NCCN(C(=O)OCCF)C(C)C)nn12 [2-fluoroethyl isopropyl(2-((3-(3-methoxypyridin-4-yl)imidazo[1,2-b]pyridazin-6-yl)amino)ethyl)carbamate] | ≤ 1000 |
| Cc1nc(C)c(-c2cnc3ccc(NCCOCC(C)C)nn23)s1 [3-(2,4-dimethylthiazol-5-yl)-N-(2-isobutoxyethyl)imidazo[1,2-b]pyridazin-6-amine] | ≤ 1000 |
| CC(C)(C)OCCCNc1ccc2ncc(-c3ccnc(N)c3)n2n1 [3-(2-aminopyridin-4-yl)-N-(3-(tert-butoxy)propyl)imidazo[1,2-b]pyridazin-6-amine] | ≤ 1000 |
| CCCCNc1ccc2ncc(-c3ccnc(N)c3)n2n1 [3-(2-aminopyridin-4-yl)-N-butylimidazo[1,2-b]pyridazin-6-amine] | ≤ 1000 |
| COc1ncccc1-c1cnc2ccc(NCC3CCOC3)nn12 (stereo not shown) [3-(2-methoxypyridin-3-yl)-N-((tetrahydrofuran-3-yl)methyl)imidazo[1,2-b]pyridazin-6-amine] | ≤ 1000 |
| COc1cnccc1-c1cnc2ccc(NCCCC(F)(F)F)nn12 [3-(3-methoxypyridin-4-yl)-N-(4,4,4-trifluorobutyl)imidazo[1,2-b]pyridazin-6-amine] | ≤ 10 |
| CCCCNc1ccc2ncc(-c3ccc(OCCN)cc3)n2n1 [3-(4-(2-aminoethoxy)phenyl)-N-butylimidazo[1,2-b]pyridazin-6-amine] | ≤ 100 |
| CC(C)(C)CCNc1ccc2ncc(-c3ccc(OCCCN)cc3)n2n1 [3-(4-(3-aminopropoxy)phenyl)-N-(3,3-dimethylbutyl)imidazo[1,2-b]pyridazin-6-amine] | ≤ 100 |

| SMILES | IC50 [nM] |
| --- | --- |
| NCCCOc1ccc(-c2cnc3ccc(NCCCc4ccccc4)nn23)cc1 [3-(4-(3-aminopropoxy)phenyl)-N-(3-phenylpropyl)imidazo[1,2-b]pyridazin-6-amine] | ≤ 100 |
| CC(C)(C)CCNc1ccc2ncc(-c3ccc(COCCN)cc3)n2n1 [3-(4-((2-aminoethoxy)methyl)phenyl)-N-(3,3-dimethylbutyl)imidazo[1,2-b]pyridazin-6-amine] | ≤ 100 |
| CCCCCNc1ccc2ncc(-c3ccc(CNCCOC)cc3)n2n1 [3-(4-(((2-methoxyethyl)amino)methyl)phenyl)-N-pentylimidazo[1,2-b]pyridazin-6-amine] | ≤ 1000 |
| CCCCNc1ccc2ncc(-c3ccc(CN)cc3)n2n1 [3-(4-(Aminomethyl)phenyl)-N-butylimidazo[1,2-b]pyridazin-6-amine] | ≤ 1000 |
| NCc1ccc(-c2cnc3ccc(NC4COC5(CCCC5)C4)nn23)cc1 (stereo not shown) [3-(4-(aminomethyl)phenyl)-N-(1-oxaspiro[4.4]nonan-3-yl)imidazo[1,2-b]pyridazin-6-amine] | ≤ 100 |
| NCc1ccc(-c2cnc3ccc(NCCOC4CCCC4)nn23)cc1 [3-(4-(aminomethyl)phenyl)-N-(2-(cyclopentyloxy)ethyl)imidazo[1,2-b]pyridazin-6-amine] | ≤ 100 |
| CC(C)(C)COCCNc1ccc2ncc(-c3ccc(CN)cc3)n2n1 [3-(4-(aminomethyl)phenyl)-N-(2-(neopentyloxy)ethyl)imidazo[1,2-b]pyridazin-6-amine] | ≤ 100 |
| CC(C)(C)OCCNc1ccc2ncc(-c3ccc(CN)cc3)n2n1 [3-(4-(aminomethyl)phenyl)-N-(2-(tert-butoxy)ethyl)imidazo[1,2-b]pyridazin-6-amine] | ≤ 100 |
| NCc1ccc(-c2cnc3ccc(NCCc4ccccc4OC(F)(F)F)nn23)cc1 [3-(4-(aminomethyl)phenyl)-N-(2-(trifluoromethoxy)phenethyl)imidazo[1,2-b]pyridazin-6-amine] | ≤ 10 |
| NCc1ccc(-c2cnc3ccc(NCCC4CCCCC4)nn23)cc1 [3-(4-(aminomethyl)phenyl)-N-(2-cyclohexylethyl)imidazo[1,2-b]pyridazin-6-amine] | ≤ 100 |
| NCc1ccc(-c2cnc3ccc(NCCC4CC4)nn23)cc1 [3-(4-(aminomethyl)phenyl)-N-(2-cyclopropylethyl)imidazo[1,2-b]pyridazin-6-amine] | ≤ 1000 |
| CCOc1ccccc1CCNc1ccc2ncc(-c3ccc(CN)cc3)n2n1 [3-(4-(aminomethyl)phenyl)-N-(2-ethoxyphenethyl)imidazo[1,2-b]pyridazin-6-amine] | ≤ 100 |
| NCc1ccc(-c2cnc3ccc(NCCc4ccccc4F)nn23)cc1 [3-(4-(aminomethyl)phenyl)-N-(2-fluorophenethyl)imidazo[1,2-b]pyridazin-6-amine] | ≤ 100 |
| CC(C)COCCNc1ccc2ncc(-c3ccc(CN)cc3)n2n1 [3-(4-(aminomethyl)phenyl)-N-(2-isobutoxyethyl)imidazo[1,2-b]pyridazin-6-amine] | ≤ 100 |
| CC(C)OCCNc1ccc2ncc(-c3ccc(CN)cc3)n2n1 [3-(4-(aminomethyl)phenyl)-N-(2-isopropoxyethyl)imidazo[1,2-b]pyridazin-6-amine] | ≤ 100 |
| COc1ccccc1CCNc1ccc2ncc(-c3ccc(CN)cc3)n2n1 [3-(4-(aminomethyl)phenyl)-N-(2-methoxyphenethyl)imidazo[1,2-b]pyridazin-6-amine] | ≤ 10 |
| CCC(C)CNc1ccc2ncc(-c3ccc(CN)cc3)n2n1 (stereo not shown) [3-(4-(aminomethyl)phenyl)-N-(2-methylbutyl)imidazo[1,2-b]pyridazin-6-amine] | ≤ 1000 |
